Results as given in the supplement of paper PMC11208160.

Test: recombinant UMI read abundance after kanamycin selection (control-corrected) (log10(CPM+1)); higher = more efficient recombination; extreme values may be limits of the assay; sequences stand for … in AGTGCAGAGAAAATCGGCCAGTTTTCTCTGCCTGCAGTCCGCATGCCGTGGGACCCCTTGGGTTCTAACCTGTTGCCTAGATTTATGCAGCGGACTGCCTTTCTCCCAAAGTGATAAACCGG…AGGTTGGTTTCACT; site = the 11-nt donor
In short: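 Values, expressed as log10(CPM+1), derive from recombinant UMI counts converted to CPM, averaged across replicates and scaled by control-derived factors. Plating was with IPTG (0.07 mM) plus kanamycin or unselected, two replicates each. The screen pooled donor and donor-binding-loop pairs for the IS621 bridge recombinase in Escherichia coli.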
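Note: IS621 bridge recombinase in Escherichia coli cells against a fixed T5 target plasmid.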

Row | Sequence | recombinant UMI read abundance (log10)
1 | CTGGTACCATGGACCGGTTTTCCCGGTAATCCGTATTTGCT (site CTGCTACCTAG) | 0
2 | CTGGTACCATGGACCGGTTTTCCCGGTAATCCGTATTTGCT (site CTGGTACCTAG) | 0
3 | CTGGTACCATGGACCGGTTTTCCCGGTAATCCGTATTTGCT (site CTGTTACCTAG) | 0
4 | CTGTAAACATGGACCGGTTTTCCCGGTAATCCGTATTTGCA (site CTGAAAACTTG) | 0
5 | CTGTAAACATGGACCGGTTTTCCCGGTAATCCGTATTTGCA (site CTGCAAACTTG) | 0.604
6 | CTGTAAACATGGACCGGTTTTCCCGGTAATCCGTATTTGCA (site CTGGAAACTTG) | 0
7 | CTGTAAACATGGACCGGTTTTCCCGGTAATCCGTATTTGCA (site CTGTAAACTTG) | 1.29
8 | CTGTACCCATGGACCGGTTTTCCCGGTAATCCGTATTTGTA (site CTGTACCCTTA) | 0.461
9 | CTGTCTCCATGGACCGGTTTTCCCGGTAATCCGTATTTGTC (site CTGTCTCCTGA) | 0.331
10 | CTTAGATCATGGACCGGTTTTCCCGGTAATCCGTATTTGGG (site CTTAGATCTCC) | 0.475
11 | CTTATAACATGGACCGGTTTTCCCGGTAATCCGTATTTGGA (site CTTATAACTTC) | 1
12 | CTTCAATCATGGACCGGTTTTCCCGGTAATCCGTATTTGGT (site CTTCAATCTAC) | 1.96
13 | CTTCCGACATGGACCGGTTTTCCCGGTAATCCGTATTTGAC (site CTTCCGACTGT) | 2.04
14 | CTTCCTACATGGACCGGTTTTCCCGGTAATCCGTATTTGAG (site CTACCTACTCT) | 0.0179
15 | CTTCCTACATGGACCGGTTTTCCCGGTAATCCGTATTTGAG (site CTCCCTACTCT) | 0.0168
16 | CTTCCTACATGGACCGGTTTTCCCGGTAATCCGTATTTGAG (site CTGCCTACTCT) | 0.0339
17 | CTTCCTACATGGACCGGTTTTCCCGGTAATCCGTATTTGAG (site CTTCCTACTCT) | 0.0166
18 | CTTCGAGCATGGACCGGTTTTCCCGGTAATCCGTATTTGCA (site ATTCGAGCTTG) | 0.00677
19 | CTTCGAGCATGGACCGGTTTTCCCGGTAATCCGTATTTGCA (site CTTCGAGCTTG) | 1.03
20 | CTTCGAGCATGGACCGGTTTTCCCGGTAATCCGTATTTGCA (site GTTCGAGCTTG) | 0
21 | CTTCGAGCATGGACCGGTTTTCCCGGTAATCCGTATTTGCA (site TTTCGAGCTTG) | 0
22 | CTTCTACCATGGACCGGTTTTCCCGGTAATCCGTATTTGCT (site CTACTACCTAG) | 0
23 | CTTCTACCATGGACCGGTTTTCCCGGTAATCCGTATTTGCT (site CTCCTACCTAG) | 0.00753
24 | CTTCTACCATGGACCGGTTTTCCCGGTAATCCGTATTTGCT (site CTGCTACCTAG) | 0
25 | CTTCTACCATGGACCGGTTTTCCCGGTAATCCGTATTTGCT (site CTTCTACCTAG) | 0.00449

Row | Sequence | recombinant UMI read abundance (log10)
26 | CTTCTATCATGGACCGGTTTTCCCGGTAATCCGTATTTGGT (site CTTCTATCTAC) | 1.58
27 | CTTCTCCCATGGACCGGTTTTCCCGGTAATCCGTATTTGTA (site CTTCTCACTTA) | 0.0088
28 | CTTCTCCCATGGACCGGTTTTCCCGGTAATCCGTATTTGTA (site CTTCTCCCTTA) | 0.487
29 | CTTCTCCCATGGACCGGTTTTCCCGGTAATCCGTATTTGTA (site CTTCTCGCTTA) | 0.0148
30 | CTTCTCCCATGGACCGGTTTTCCCGGTAATCCGTATTTGTA (site CTTCTCTCTTA) | 0.837
31 | CTTCTCGCATGGACCGGTTTTCCCGGTAATCCGTATTTGCG (site CTTCTCGCTCG) | 0.0091
32 | CTTGCCCCATGGACCGGTTTTCCCGGTAATCCGTATTTGTA (site CTTGCCCCTTA) | 0.366
33 | CTTGCTTCATGGACCGGTTTTCCCGGTAATCCGTATTTGAT (site CTTGCTTCTAT) | 0.0131
34 | CTTGGAACATGGACCGGTTTTCCCGGTAATCCGTATTTGTT (site CATGGAACTAA) | 0.791
35 | CTTGGAACATGGACCGGTTTTCCCGGTAATCCGTATTTGTT (site CCTGGAACTAA) | 0.00748
36 | CTTGGAACATGGACCGGTTTTCCCGGTAATCCGTATTTGTT (site CGTGGAACTAA) | 0.00508
37 | CTTGGAACATGGACCGGTTTTCCCGGTAATCCGTATTTGTT (site CTTGGAACTAA) | 1.36
38 | CTTGTAACATGGACCGGTTTTCCCGGTAATCCGTATTTGCA (site CTTGTAACTTG) | 0.147
39 | CTTGTATCATGGACCGGTTTTCCCGGTAATCCGTATTTGAC (site CTAGTATCTGT) | 0
40 | CTTGTATCATGGACCGGTTTTCCCGGTAATCCGTATTTGAC (site CTCGTATCTGT) | 0
41 | CTTGTATCATGGACCGGTTTTCCCGGTAATCCGTATTTGAC (site CTGGTATCTGT) | 0
42 | CTTGTATCATGGACCGGTTTTCCCGGTAATCCGTATTTGAC (site CTTGTATCTGT) | 0
43 | CTTGTATCATGGACCGGTTTTCCCGGTAATCCGTATTTGGC (site CTAGTATCTGT) | 0.315
44 | CTTGTATCATGGACCGGTTTTCCCGGTAATCCGTATTTGGC (site CTTGTATCTGC) | 0.486
45 | CTTTAAACATGGACCGGTTTTCCCGGTAATCCGTATTTGTC (site CTTTAAACTGA) | 0
46 | CTTTTCTCATGGACCGGTTTTCCCGGTAATCCGTATTTGTA (site CTTATCTCTTA) | 0
47 | CTTTTCTCATGGACCGGTTTTCCCGGTAATCCGTATTTGTA (site CTTCTCTCTTA) | 0.274
48 | CTTTTCTCATGGACCGGTTTTCCCGGTAATCCGTATTTGTA (site CTTGTCTCTTA) | 0.00384
49 | CTTTTCTCATGGACCGGTTTTCCCGGTAATCCGTATTTGTA (site CTTTTCTCTTA) | 0.0916
50 | GAAACTACATGGACCGGTTTTCCCGGTAATCCGTATTTGCC (site GAAACTACTGG) | 1.88

Row | Sequence | recombinant UMI read abundance (log10)
51 | GAACACCCATGGACCGGTTTTCCCGGTAATCCGTATTTGGA (site GAACACCCTTC) | 0.00915
52 | GAACATACATGGACCGGTTTTCCCGGTAATCCGTATTTGAA (site GAACATACTTT) | 1.69
53 | GAACATTCATGGACCGGTTTTCCCGGTAATCCGTATTTGTT (site GAAAATTCTAA) | 0
54 | GAACATTCATGGACCGGTTTTCCCGGTAATCCGTATTTGTT (site GAACATTCTAA) | 2.03
55 | GAACATTCATGGACCGGTTTTCCCGGTAATCCGTATTTGTT (site GAAGATTCTAA) | 0
56 | GAACATTCATGGACCGGTTTTCCCGGTAATCCGTATTTGTT (site GAATATTCTAA) | 0.0114
57 | GAACCGACATGGACCGGTTTTCCCGGTAATCCGTATTTGGT (site GAACCGACTAC) | 0.724
58 | GAACGGCCATGGACCGGTTTTCCCGGTAATCCGTATTTGCA (site GAAAGGCCTTG) | 0
59 | GAACGGCCATGGACCGGTTTTCCCGGTAATCCGTATTTGCA (site GAACGGCCTTG) | 0.812
60 | GAACGGCCATGGACCGGTTTTCCCGGTAATCCGTATTTGCA (site GAAGGGCCTTG) | 0
61 | GAACGGCCATGGACCGGTTTTCCCGGTAATCCGTATTTGCA (site GAATGGCCTTG) | 0
62 | GAACTCACATGGACCGGTTTTCCCGGTAATCCGTATTTGCT (site GAACTCACTAG) | 2.53
63 | GAACTGGCATGGACCGGTTTTCCCGGTAATCCGTATTTGCG (site GAACTGGCTCG) | 0.715
64 | GAACTTACATGGACCGGTTTTCCCGGTAATCCGTATTTGCG (site GAACTTACTCG) | 1.85
65 | GAAGACTCATGGACCGGTTTTCCCGGTAATCCGTATTTGTT (site GAAGAATCTAA) | 0.423
66 | GAAGACTCATGGACCGGTTTTCCCGGTAATCCGTATTTGTT (site GAAGACTCTAA) | 2.84
67 | GAAGACTCATGGACCGGTTTTCCCGGTAATCCGTATTTGTT (site GAAGAGTCTAA) | 0.00964
68 | GAAGACTCATGGACCGGTTTTCCCGGTAATCCGTATTTGTT (site GAAGATTCTAA) | 0.506
69 | GAAGGAGCATGGACCGGTTTTCCCGGTAATCCGTATTTGTA (site GAAGGAGCTTA) | 2.33
70 | GAAGGGCCATGGACCGGTTTTCCCGGTAATCCGTATTTGCA (site GAAAGGCCTTG) | 0
71 | GAAGGGCCATGGACCGGTTTTCCCGGTAATCCGTATTTGCA (site GAACGGCCTTG) | 0
72 | GAAGGGCCATGGACCGGTTTTCCCGGTAATCCGTATTTGCA (site GAAGGGCCTTG) | 0
73 | GAAGGGCCATGGACCGGTTTTCCCGGTAATCCGTATTTGCA (site GAATGGCCTTG) | 0
74 | GAAGGTTCATGGACCGGTTTTCCCGGTAATCCGTATTTGTT (site GAAGATTCTAA) | 1.32
75 | GAAGGTTCATGGACCGGTTTTCCCGGTAATCCGTATTTGTT (site GAAGCTTCTAA) | 0.00355
